Experimental findings from patent US10800792B2, “Inhibitors of Bruton's tyrosine kinase and method of their use” (JANSSEN PHARMACEUTICA NV, priority 2015, dated 2020) are described below.

The target of the assay is unphosphorylated-BTK kinase domain (UP-BTK), GST-tagged human BTK (389-659aa) (Homo sapiens (Human), UniProt Q06187). Kind of assay: BTK kinase Lanthascreen binding assay. Conditions: 60 minutes incubation, pIC50 = negative log of the IC50 in molar. In short, it runs like this: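 Tracer-displacement binding assay against the non-phosphorylated enzyme, read by Lanthascreen. Reported: pIC50.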
On the technique in general: TR-FRET usually uses a lanthanide donor and a delayed reading to cut background.

Setting [1] is: Lanthascreen tracer competition.
Where [2] appears, read: unphosphorylated-BTK kinase domain, 50 nM Tracer 236.

unphosphorylated-BTK kinase domain (UP-BTK), GST-tagged human BTK (389-659aa), sequence (Q06187 389-659): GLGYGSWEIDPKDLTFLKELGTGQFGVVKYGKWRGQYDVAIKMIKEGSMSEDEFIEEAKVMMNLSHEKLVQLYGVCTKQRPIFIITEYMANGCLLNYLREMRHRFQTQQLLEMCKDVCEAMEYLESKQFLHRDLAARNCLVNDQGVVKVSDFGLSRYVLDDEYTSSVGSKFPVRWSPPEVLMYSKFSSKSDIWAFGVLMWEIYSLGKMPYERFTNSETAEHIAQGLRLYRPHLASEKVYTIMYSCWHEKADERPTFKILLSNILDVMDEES

Regarding `Cc1cc(Oc2ccccc2)ccc1N1C(=O)Nc2c(C(=O)NC3CCCN(C(=O)/C(C#N)=C/C(C)(C)C)C3)sc3nccc1c23` (stereo not shown) [Example 897, (E)-N-(1-(2-Cyano-4,4-dimethylpent-2-enoyl)piperidin-3-yl)-5-(2-methyl-4-phenoxyphenyl)-4-oxo-4,5-dihydro-3H-1-thia-3,5,8-triazaacenaphthylene-2-carboxamide], under setting [1], the “BTK_I_binding pIC50” value is recorded as 6.8.
Regarding `Cc1cc(Oc2ccccc2)ccc1N1C(=O)Nc2c(C(=O)NC3CCCN(C)C3)sc3nccc1c23` (stereo not shown) [Example 898, 5-(2-Methyl-4-phenoxyphenyl)-N-(1-methylpiperidin-3-yl)-4-oxo-4,5-dihydro-3H-1-thia-3,5,8-triazaacenaphthylene-2-carboxamide], the “BTK_I_binding pIC50” value under setting [1] was 6.8.
On the same count and under the same terms, the figure for `Cc1cc(Oc2ccccc2)ccc1N1C(=O)Nc2c(C(=O)N[C@H]3CCCN(C(=O)/C(C#N)=C/C4CC4)C3)sc3nccc1c23` [Example 899, (S,E)-N-(1-(2-Cyano-3-cyclopropylacryloyl)piperidin-3-yl)-5-(2-methyl-4-phenoxyphenyl)-4-oxo-4,5-dihydro-3H-1-thia-3,5,8-triazaacenaphthylene-2-carboxamide] is 6.8; for `Cc1cc(Oc2ccccc2)ccc1N1C(=O)Nc2c(C(=O)N[C@@H]3CCCN(C(=O)/C=C/CN4CCCCC4)C3)sc3nccc1c23` [Example 900, (R,E)-5-(2-Methyl-4-phenoxyphenyl)-4-oxo-N-(1-(4-(piperidin-1-yl)but-2-enoyl)piperidin-3-yl)-4,5-dihydro-3H-1-thia-3,5,8-triazaacenaphthylene-2-carboxamide] it is 6.8; for `Cc1c(Oc2ccccc2)cccc1N1C(=O)Nc2c(C(=O)N[C@@H]3CCCN(C(=O)/C(C#N)=C/C4CC4)C3)sc3nccc1c23` [Example 901, (R,E)-N-(1-(2-Cyano-3-cyclopropylacryloyl)piperidin-3-yl)-5-(2-methyl-3-phenoxyphenyl)-4-oxo-4,5-dihydro-3H-1-thia-3,5,8-triazaacenaphthylene-2-carboxamide] it is 6.8.
Consider `N#C/C(=C\C1CC1)C(=O)N1CCC[C@H](NC(=O)c2sc3nccc4c3c2NC(=O)N4c2ccc(C(=O)Nc3cc(C(F)(F)F)ccn3)cc2F)C1` [Example 902, (S,E)-N-(1-(2-Cyano-3-cyclopropylacryloyl)piperidin-3-yl)-5-(2-fluoro-4-((4-(trifluoromethyl)pyridin-2-yl)carbamoyl)phenyl)-4-oxo-4,5-dihydro-3H-1-thia-3,5,8-triazaacenaphthylene-2-carboxamide], for which the “BTK_I_binding pIC50” value under setting [2] was found to be 6.8.
As to `CCC(=O)N1CCCC(NC(=O)c2sc3nccc4c3c2NC(=O)N4c2ccc(Oc3ccccc3)cc2C)C1` (stereo not shown) [Example 903, 5-(2-Methyl-4-phenoxyphenyl)-4-oxo-N-(1-propionylpiperidin-3-yl)-4,5-dihydro-3H-1-thia-3,5,8-triazaacenaphthylene-2-carboxamide], the “BTK_I_binding pIC50” value under setting [2] is on record as 6.8.
The same measure, in the same setting: the same measure for `Cc1cc(Oc2ccccc2)ccc1N1C(=O)Nc2c(C(=O)N[C@H]3CCCN(C(=O)/C(C#N)=C/C(C)(C)C)C3)sc3nccc1c23` [Example 904, (S,E)-N-(1-(2-Cyano-4,4-dimethylpent-2-enoyl)piperidin-3-yl)-5-(2-methyl-4-phenoxyphenyl)-4-oxo-4,5-dihydro-3H-1-thia-3,5,8-triazaacenaphthylene-2-carboxamide]: 6.7; for `Cc1cc(Oc2ccccc2)ccc1N1C(=O)Nc2c(C(=O)N[C@H]3CCN(C(=O)/C(C#N)=C/C4CC4)C3)sc3nccc1c23` [Example 905, (S,E)-N-(1-(2-Cyano-3-cyclopropylacryloyl)pyrrolidin-3-yl)-5-(2-methyl-4-phenoxyphenyl)-4-oxo-4,5-dihydro-3H-1-thia-3,5,8-triazaacenaphthylene-2-carboxamide]: 6.7; for `COc1ccccc1Oc1ccc(N2C(=O)Nc3c(C(=O)NC4CCCN(C)C4)sc4nccc2c34)c(C)c1` (stereo not shown) [Example 907, 5-(4-(2-Methoxyphenoxy)-2-methylphenyl)-N-(1-methylpiperidin-3-yl)-4-oxo-4,5-dihydro-3H-1-thia-3,5,8-triazaacenaphthylene-2-carboxamide]: 6.7.
On the same count and under the same terms, the same measure for `Cc1cc(Oc2ccccc2)ccc1N1C(=O)Nc2c(C(=O)N[C@@H]3CCCN(C(=O)CN4CCC4)C3)sc3nccc1c23` [Example 908, (R)—N-(1-(2-(Azetidin-1-yl)acetyl)piperidin-3-yl)-5-(2-methyl-4-phenoxyphenyl)-4-oxo-4,5-dihydro-3H-1-thia-3,5,8-triazaacenaphthylene-2-carboxamide]: 6.7.
On the same count and under the same terms, the same measure for `O=C(NC1CCOCC1)c1sc2nccc3c2c1NC(=O)N3c1ccc(Oc2ccccc2)cc1` [Example 909, 4-Oxo-5-(4-phenoxyphenyl)-N-(tetrahydro-2H-pyran-4-yl)-4,5-dihydro-3H-1-thia-3,5,8-triazaacenaphthylene-2-carboxamide]: 6.7.
`CN1CC[C@@H](NC(=O)c2sc3nccc4c3c2NC(=O)N4c2ccc(Oc3ccccc3)cc2)C1` [Example 910, (R)—N-(1-Methylpyrrolidin-3-yl)-4-oxo-5-(4-phenoxyphenyl)-4,5-dihydro-3H-1-thia-3,5,8-triazaacenaphthylene-2-carboxamide]: the “BTK_I_binding pIC50” value under setting [2] was found to be 6.7.
In the case of `O=C(N[C@@H]1CCNC1)c1sc2nccc3c2c1NC(=O)N3c1ccc(Oc2ccccc2)cc1` [Example 911, (R)-4-Oxo-5-(4-phenoxyphenyl)-N-(pyrrolidin-3-yl)-4,5-dihydro-3H-1-thia-3,5,8-triazaacenaphthylene-2-carboxamide], under setting [2], the “BTK_I_binding pIC50” value came to 6.6.
On the same count and under the same terms, the figure for `Cc1cc(Oc2ccccc2)ccc1N1C(=O)Nc2c(C(=O)N[C@H]3CCCNC3)sc3nccc1c23` [Example 912, (S)-5-(2-Methyl-4-phenoxyphenyl)-4-oxo-N-(piperidin-3-yl)-4,5-dihydro-3H-1-thia-3,5,8-triazaacenaphthylene-2-carboxamide] is 6.5; for `Cc1cc(OC(C)C)ccc1N1C(=O)Nc2c(C(=O)N[C@@H]3CCCN(C(=O)/C=C/CN(C)C)C3)sc3nccc1c23` [Example 913, (R,E)-N-(1-(4-(Dimethylamino)but-2-enoyl)piperidin-3-yl)-5-(4-isopropoxy-2-methylphenyl)-4-oxo-4,5-dihydro-3H-1-thia-3,5,8-triazaacenaphthylene-2-carboxamide] it is 6.5.
The same measure, in the same setting: the same measure for `O=C(N[C@@H]1CCN(C(=O)c2ccccc2)C1)c1sc2nccc3c2c1NC(=O)N3c1ccc(Oc2ccccc2)cc1` [Example 914, (R)—N-(1-Benzoylpyrrolidin-3-yl)-4-oxo-5-(4-phenoxyphenyl)-4,5-dihydro-3H-1-thia-3,5,8-triazaacenaphthylene-2-carboxamide]: 6.5; for `O=C(N[C@@H]1CCCNC1)c1sc2nccc3c2c1NC(=O)N3c1ccc(Oc2ccccc2)cn1` [Example 915, (R)-4-Oxo-5-(5-phenoxypyridin-2-yl)-N-(piperidin-3-yl)-4,5-dihydro-3H-1-thia-3,5,8-triazaacenaphthylene-2-carboxamide]: 6.5.
The same measure, in the same setting: the same measure for `Cc1cc(Oc2ccccc2)ccc1N1C(=O)Nc2c(C(=O)NC3CCN(C(=O)/C(C#N)=C/C4CC4)CC3)sc3nccc1c23` [Example 916, (E)-N-(1-(2-Cyano-3-cyclopropylacryloyl)piperidin-4-yl)-5-(2-methyl-4-phenoxyphenyl)-4-oxo-4,5-dihydro-3H-1-thia-3,5,8-triazaacenaphthylene-2-carboxamide]: 6.4.
For `COc1ccccc1Oc1ccc(N2C(=O)Nc3c(C(=O)NC4CCNCC4)sc4nccc2c34)c(C)c1` [Example 917, 5-(4-(2-Methoxyphenoxy)-2-methylphenyl)-4-oxo-N-(piperidin-4-yl)-4,5-dihydro-3H-1-thia-3,5,8-triazaacenaphthylene-2-carboxamide], the “BTK_I_binding pIC50” value under setting [2] worked out at 6.4.
Consider `COc1ccccc1Oc1ccc(N2C(=O)Nc3c(C(=O)NC4CCN(C)CC4)sc4nccc2c34)c(C)c1` [Example 918, 5-(4-(2-Methoxyphenoxy)-2-methylphenyl)-N-(1-methylpiperidin-4-yl)-4-oxo-4,5-dihydro-3H-1-thia-3,5,8-triazaacenaphthylene-2-carboxamide], for which the “BTK_I_binding pIC50” value under setting [2] is listed as 6.4.
Same read-out and setting: the figure for `Cc1cc(OC2CCCC2)ccc1N1C(=O)Nc2c(C(=O)N[C@@H]3CCCNC3)sc3nccc1c23` [Example 919, (R)-5-(4-(cyclopentyloxy)-2-methylphenyl)-4-oxo-N-(piperidin-3-yl)-4,5-dihydro-3H-1-thia-3,5,8-triazaacenaphthylene-2-carboxamide] is 6.4; for `CN1CCC(NC(=O)c2sc3nccc4c3c2NC(=O)N4c2ccc(Oc3ccccc3)cc2)CC1` [Example 920, N-(1-Methylpiperidin-4-yl)-4-oxo-5-(4-phenoxyphenyl)-4,5-dihydro-3H-1-thia-3,5,8-triazaacenaphthylene-2-carboxamide] it is 6.4.
On the same count and under the same terms, the same measure for `Cc1cc(Oc2ccccc2)ccc1N1C(=O)Nc2c(C(=O)NC3CCN(C(=O)/C(C#N)=C/C(C)(C)C)CC3)sc3nccc1c23` [Example 921, (E)-N-(1-(2-Cyano-4,4-dimethylpent-2-enoyl)piperidin-4-yl)-5-(2-methyl-4-phenoxyphenyl)-4-oxo-4,5-dihydro-3H-1-thia-3,5,8-triazaacenaphthylene-2-carboxamide]: 6.3.
As for `O=C(N[C@@H]1CCCNC1)c1sc2nccc3c2c1NC(=O)N3c1ccc(Oc2ccccc2)nc1` [Example 922, (R)-4-Oxo-5-(6-phenoxypyridin-3-yl)-N-(piperidin-3-yl)-4,5-dihydro-3H-1-thia-3,5,8-triazaacenaphthylene-2-carboxamide], under setting [2], the “BTK_I_binding pIC50” value came out at 6.3.
